Calls of active or inactive are those of the source. No rule for the calls is given here.
Test system: CCRIS mutagenicity, Ames/micronucleus/aberration tests
Experiment: CCRIS mutagenicity studies
[1] = Test System: AMES SALMONELLA TYPHIMURIUM, Strain/Indicator: TA98, Metabolic Activation: HAMSTER, LIVER, S-9, AROCLOR 1254, Method: PREINCUBATION
[2] = Test System: AMES SALMONELLA TYPHIMURIUM, Strain/Indicator: TA98, Metabolic Activation: NONE, Method: PREINCUBATION
[3] = Test System: AMES SALMONELLA TYPHIMURIUM, Strain/Indicator: TA98, Metabolic Activation: RAT, LIVER, S-9, AROCLOR 1254, Method: PREINCUBATION
[4] = Test System: AMES SALMONELLA TYPHIMURIUM, Strain/Indicator: TA100, Metabolic Activation: HAMSTER, LIVER, S-9, AROCLOR 1254, Method: PREINCUBATION
[5] = Test System: AMES SALMONELLA TYPHIMURIUM, Strain/Indicator: TA100, Metabolic Activation: NONE, Method: PREINCUBATION
[6] = Test System: AMES SALMONELLA TYPHIMURIUM, Strain/Indicator: TA100, Metabolic Activation: RAT, LIVER, S-9, AROCLOR 1254, Method: PREINCUBATION
[7] = Test System: AMES SALMONELLA TYPHIMURIUM, Strain/Indicator: TA1535, Metabolic Activation: NONE, Method: PREINCUBATION
[8] = Test System: AMES SALMONELLA TYPHIMURIUM, Strain/Indicator: TA1535, Metabolic Activation: RAT, LIVER, S-9, AROCLOR 1254, Method: PREINCUBATION
[9] = Test System: AMES SALMONELLA TYPHIMURIUM, Strain/Indicator: TA1537, Metabolic Activation: HAMSTER, LIVER, S-9, AROCLOR 1254, Method: PREINCUBATION
[10] = Test System: AMES SALMONELLA TYPHIMURIUM, Strain/Indicator: TA1537, Metabolic Activation: NONE, Method: PREINCUBATION
[11] = Test System: AMES SALMONELLA TYPHIMURIUM, Strain/Indicator: TA1537, Metabolic Activation: RAT, LIVER, S-9, AROCLOR 1254, Method: PREINCUBATION
[12] = Test System: AMES SALMONELLA TYPHIMURIUM, Strain/Indicator: TA98, Metabolic Activation: RAT, LIVER, S-9, AROCLOR 1254, Method: STANDARD PLATE
[13] = Test System: AMES SALMONELLA TYPHIMURIUM, Strain/Indicator: TA100, Metabolic Activation: RAT, LIVER, S-9, AROCLOR 1254, Method: STANDARD PLATE

## Oc1ccc(Cl)cc1Cl
End Point: IN VITRO CHROMOSOMAL ABERRATIONS, Test System: CHO CELLS, Metabolic Activation: RAT, LIVER, S-9, AROCLOR 1254
  mutagenic call: inactive; negative
End Point: IN VITRO CHROMOSOMAL ABERRATIONS, Test System: CHO CELLS, Metabolic Activation: RAT, LIVER, S-9, PHENOBARBITAL AND BETA-NAPHTHOFLAVONE
  mutagenic call: active; positive
End Point: IN VITRO CHROMOSOMAL ABERRATIONS, Test System: TK6 HUMAN LYMPHOBLASTS, Metabolic Activation: NONE
  mutagenic call: inactive; negative; authors reported the results as equivocal
[1]
  mutagenic call: inactive; negative
[2]
  mutagenic call: inactive; negative
[3]
  mutagenic call: inactive; negative
Test System: AMES SALMONELLA TYPHIMURIUM, Strain/Indicator: TA98, Metabolic Activation: S-9, Method: STANDARD PLATE
  mutagenic call: inactive; negative
[4]
  mutagenic call: inactive; negative
[5]
  mutagenic call: inactive; negative
[6]
  mutagenic call: inactive; negative
Test System: AMES SALMONELLA TYPHIMURIUM, Strain/Indicator: TA100, Metabolic Activation: S-9, Method: STANDARD PLATE
  mutagenic call: inactive; negative
[7]
  mutagenic call: inactive; negative
[8]
  mutagenic call: inactive; negative
[9]
  mutagenic call: inactive; negative
[10]
  mutagenic call: inactive; negative
[11]
  mutagenic call: inactive; negative
Test System: AMES SALMONELLA TYPHIMURIUM, Strain/Indicator: YG1021, Metabolic Activation: S-9, Method: STANDARD PLATE
  mutagenic call: inactive; negative
Test System: AMES SALMONELLA TYPHIMURIUM, Strain/Indicator: YG1024, Metabolic Activation: S-9, Method: STANDARD PLATE
  mutagenic call: inactive; negative
Test System: AMES SALMONELLA TYPHIMURIUM, Strain/Indicator: YG1026, Metabolic Activation: S-9, Method: STANDARD PLATE
  mutagenic call: inactive; negative
Test System: AMES SALMONELLA TYPHIMURIUM, Strain/Indicator: YG1029, Metabolic Activation: S-9, Method: STANDARD PLATE
  mutagenic call: inactive; negative
Test System: CHINESE HAMSTER V-79, Strain/Indicator: V-79/6-THIOGUANINE, Metabolic Activation: NONE, Method: STANDARD PLATE
  mutagenic call: inactive; negative
Test System: MOUSE LYMPHOMA, Strain/Indicator: L5178Y (TK+/TK-), Metabolic Activation: NONE, Method: SUSPENSION/PLATE
  mutagenic call: active; positive

## CN[C@@H]1[C@H](O[C@H]2[C@H](O[C@H]3[C@H](O)[C@@H](O)[C@H](N=C(N)N)[C@@H](O)[C@@H]3N=C(N)N)O[C@@H](C)[C@]2(O)C=O)O[C@@H](CO)[C@H](O)[C@H]1O
[1]
  mutagenic call: inactive; negative
[2]
  mutagenic call: inactive; negative
[3]
  mutagenic call: inactive; negative
[4]
  mutagenic call: inactive; negative
[5]
  mutagenic call: inactive; negative
[6]
  mutagenic call: inactive; negative
Test System: AMES SALMONELLA TYPHIMURIUM, Strain/Indicator: TA102, Metabolic Activation: NONE, Method: STANDARD PLATE
  mutagenic call: active; positive
Test System: AMES SALMONELLA TYPHIMURIUM, Strain/Indicator: TA102, Metabolic Activation: RAT, LIVER, S-9, AROCLOR 1254, Method: STANDARD PLATE
  mutagenic call: active; positive
Test System: AMES SALMONELLA TYPHIMURIUM, Strain/Indicator: TA1535, Metabolic Activation: HAMSTER, LIVER, S-9, AROCLOR 1254, Method: PREINCUBATION
  mutagenic call: inactive; negative
[7]
  mutagenic call: inactive; negative
[8]
  mutagenic call: inactive; negative
[9]
  mutagenic call: inactive; negative
[10]
  mutagenic call: inactive; negative
[11]
  mutagenic call: inactive; negative
Test System: AMES SALMONELLA TYPHIMURIUM, Strain/Indicator: TA2638A, Metabolic Activation: NONE, Method: STANDARD PLATE
  mutagenic call: inactive; negative

## O=C(c1ccccc1)C1OC1c1ccc([N+](=O)[O-])cc1 (stereo not drawn)
Test System: AMES SALMONELLA TYPHIMURIUM, Strain/Indicator: TA98, Metabolic Activation: NONE, Method: STANDARD PLATE
  mutagenic call: inactive; negative
[12]
  mutagenic call: inactive; negative
Test System: AMES SALMONELLA TYPHIMURIUM, Strain/Indicator: TA100, Metabolic Activation: NONE, Method: STANDARD PLATE
  mutagenic call: inactive; negative
[13]
  mutagenic call: inactive; negative

## c1ccc2c(c1)ccc1cc3cnccc3cc12
[12]
  mutagenic call: active; positive
[13]
  mutagenic call: active; positive

— PubChem BioAssay AID1259407 (Chemical Carcinogenesis Research Information System (CCRIS), 2018)
